# Measurements from patent publication US20210338692A1, “A 19-NOR C3,3-DISUBSTITUTED C21-N-PYRAZOLYL STEROID AND METHODS OF USE THEREOF” (SAGE THERAPEUTICS, INC., priority 2018, published 2021).
# Assays:
# [1] = tested on: female subjects diagnosed with severe postpartum depression; experiment: Placebo-controlled study of Compound 1 in postpartum depression (HAM-D, MADRS, HAM-A, CGI-I); assay type: in vivo, human; settings: 30 mg once a day for 15 days
# Method: Compound 1 was investigated for use in subjects with depression. Female subjects (18-65 years old) diagnosed with severe postpartum depression (PDD) with a HAM-D total score of greater than or equal to 26 at screening and Day 1 were used in the investigation. The subjects were dosed once per day with capsules containing 30 mg of Compound 1. The dose could be adjusted to capsules containing 20 mg of Compound 1 if the 30 mg dose was not tolerated. Subjects not dosed with Compound 1 were dosed with a placebo. In total, 78 subjects were treated with Compound 1 at 30 mg and 73 subjects were treated with placebo.
# Assuming a 2-sided test at an alpha level of 0.05, a sample size of approximately 65 evaluable subjects per treatment group provided 90% power to detect a placebo-adjusted treatment difference of approximately 4 points in the primary endpoint, change from baseline in HAM-D total score at Day 15 assuming standard deviation (SD) of 7 points. The change from baseline in the HAM-D total score was analyzed using a mixed effects model for repeated measures (MMRM). The model included the change from baseline at each visit as the dependent variable. The main comparison was (difference in least mean square [LSMEAN]) between Compound 1 Capsules and placebo at the 15-day timepoint. […]
# [2] = tested on: synaptic and extrasynaptic GABAA receptors; settings: cited from earlier work
# subjects with MDD = experiment: Earlier clinical studies of Compound 1 in subjects with MDD (Phase 2 study, previous clinical trials)
smiles,measurement,setting,value
C[C@@]1(O)CC[C@H]2[C@H](CC[C@@H]3[C@@H]2CC[C@]2(C)[C@@H](C(=O)Cn4cc(C#N)cn4)CC[C@@H]32)C1 [Compound 1],overall efficacy in postpartum depression compared to placebo,[1],effective at treating postpartum depression
same,mode of action at GABAA receptors,[2],positive allosteric modulator of GABAA receptors
same,efficacy and tolerability of the dose level,"subjects with MDD; 30 mg per day, Phase 2 study in subjects with MDD",efficacious and well-tolerated
same,subjects with HAM-D score of 16 to 21 among those achieving remission or response at Day 15,subjects with MDD; Day 42,18.2%
same,subjects with HAM-D≥22 among those achieving remission or response at Day 15,subjects with MDD; Day 42,6.1%
same,adverse effect when administered in the morning,"subjects with MDD; previous clinical trials, administered in the morning",sedation/somnolence observed
same,tolerability when given in the evening,"subjects with MDD; previous clinical trials, given in the evening",improved tolerability
